In paper PMC11208997 (RSC Advances, 2024):

Assays:
[1] = tested on: lung cancer (A-549) cell line; assay: Antiproliferative assay, A-549; format: cell-based; settings: Homo sapiens, A549, read-out: Antiproliferative activity IC50 ± SEM, A-549
BRAF^V600E [2] = target: BRAF^V600E (Mus musculus, UniProt P28028, V585E); assay: BRAF^V600E inhibitory assay; format: biochemical
Cell viability assay = format: cell-based; settings: human, MCF-10A mammary gland epithelial normal cells
VEGFR-2 [3] = target: VEGFR-2 (Homo sapiens, UniProt P35968); assay: VEGFR-2 inhibitory assay; format: biochemical
Sequence of VEGFR-2 (Homo sapiens, UniProt P35968) (P35968 20-1356): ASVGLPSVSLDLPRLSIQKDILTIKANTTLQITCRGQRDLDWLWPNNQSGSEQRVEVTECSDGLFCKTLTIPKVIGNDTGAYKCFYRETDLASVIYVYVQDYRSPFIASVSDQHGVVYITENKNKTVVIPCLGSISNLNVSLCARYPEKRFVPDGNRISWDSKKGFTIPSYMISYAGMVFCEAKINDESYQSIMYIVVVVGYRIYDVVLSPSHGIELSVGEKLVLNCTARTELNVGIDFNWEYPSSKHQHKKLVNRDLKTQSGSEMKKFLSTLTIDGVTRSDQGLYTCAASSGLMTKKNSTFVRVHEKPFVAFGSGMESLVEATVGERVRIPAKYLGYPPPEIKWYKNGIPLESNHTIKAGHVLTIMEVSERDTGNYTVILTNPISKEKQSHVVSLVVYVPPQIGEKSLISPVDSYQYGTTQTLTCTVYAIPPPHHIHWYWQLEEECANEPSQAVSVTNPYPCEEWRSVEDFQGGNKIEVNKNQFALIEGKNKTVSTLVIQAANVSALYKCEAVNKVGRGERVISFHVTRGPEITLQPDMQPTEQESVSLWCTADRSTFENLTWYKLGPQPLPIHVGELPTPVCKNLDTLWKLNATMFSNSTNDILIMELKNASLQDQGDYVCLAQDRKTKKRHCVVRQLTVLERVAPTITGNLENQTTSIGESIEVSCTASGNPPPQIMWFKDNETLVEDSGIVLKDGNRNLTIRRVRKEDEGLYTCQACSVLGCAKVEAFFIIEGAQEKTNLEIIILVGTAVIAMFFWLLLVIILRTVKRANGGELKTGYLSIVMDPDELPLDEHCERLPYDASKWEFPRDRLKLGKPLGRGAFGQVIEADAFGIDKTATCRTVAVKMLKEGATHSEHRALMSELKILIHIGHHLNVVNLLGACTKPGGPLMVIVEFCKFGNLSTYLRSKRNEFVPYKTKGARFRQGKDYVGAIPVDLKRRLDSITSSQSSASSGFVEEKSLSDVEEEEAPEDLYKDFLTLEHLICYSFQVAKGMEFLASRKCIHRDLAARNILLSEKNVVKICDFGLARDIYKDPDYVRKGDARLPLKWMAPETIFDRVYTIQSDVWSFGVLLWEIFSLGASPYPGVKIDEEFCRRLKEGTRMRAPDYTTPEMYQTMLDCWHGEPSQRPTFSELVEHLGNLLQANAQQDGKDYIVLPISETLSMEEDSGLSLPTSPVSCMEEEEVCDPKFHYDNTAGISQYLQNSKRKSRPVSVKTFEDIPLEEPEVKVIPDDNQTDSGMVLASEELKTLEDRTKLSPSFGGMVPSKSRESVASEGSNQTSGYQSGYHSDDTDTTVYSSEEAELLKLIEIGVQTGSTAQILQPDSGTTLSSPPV

EGFR [4] = target: EGFR (Homo sapiens, UniProt P00533); assay: EGFR-TK inhibitory assay; format: biochemical
Sequence of EGFR (Homo sapiens, UniProt P00533) (P00533 669-1210): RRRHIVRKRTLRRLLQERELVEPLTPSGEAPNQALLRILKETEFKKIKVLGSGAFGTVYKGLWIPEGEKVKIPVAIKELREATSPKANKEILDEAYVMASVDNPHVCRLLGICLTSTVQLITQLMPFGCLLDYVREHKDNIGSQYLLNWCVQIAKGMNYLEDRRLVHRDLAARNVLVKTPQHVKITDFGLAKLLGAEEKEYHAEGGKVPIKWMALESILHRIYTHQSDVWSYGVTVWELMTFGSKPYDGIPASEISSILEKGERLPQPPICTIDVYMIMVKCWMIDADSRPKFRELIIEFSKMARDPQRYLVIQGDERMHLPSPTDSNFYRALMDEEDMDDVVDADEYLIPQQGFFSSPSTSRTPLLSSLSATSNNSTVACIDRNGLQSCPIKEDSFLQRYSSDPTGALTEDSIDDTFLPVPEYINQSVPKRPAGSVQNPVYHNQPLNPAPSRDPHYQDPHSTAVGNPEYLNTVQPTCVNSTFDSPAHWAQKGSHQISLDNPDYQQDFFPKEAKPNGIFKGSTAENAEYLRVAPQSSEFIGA

[5] = tested on: four human cancer cell lines (A-549, MCF-7, Panc-1, HT-29); assay: Antiproliferative assay, average over four cancer cell lines; format: cell-based; settings: for Fold lower antiproliferative potency (GI50) than 9c: GI50 relative to 9c; for GI50: Homo sapiens, read-out: Antiproliferative activity, Average (GI50)
colon cancer (HT-29) = assay: Antiproliferative assay, HT-29; format: cell-based; settings: Homo sapiens, HT-29, read-out: Antiproliferative activity IC50 ± SEM, HT-29
[6] = tested on: breast cancer (MCF-7) cell line; assay: Antiproliferative assay, MCF-7; format: cell-based; settings: Homo sapiens, MCF7, read-out: Antiproliferative activity IC50 ± SEM, MCF-7
[7] = tested on: pancreatic cancer (Panc-1) cell line; assay: Antiproliferative assay, Panc-1; format: cell-based; settings: Homo sapiens, PANC-1, read-out: Antiproliferative activity IC50 ± SEM, Panc-1
BRAF^V600E [8] = assay: Western blotting, BRAF^V600E level in A549 cells; format: cell-based, human; settings: untreated control OD 0.507
EGFR [9] = assay: Western blotting, EGFR level in A549 cells; format: cell-based, human; settings: untreated control OD 0.695
VEGFR-2 [10] = assay: Western blotting, VEGFR-2 level in A549 cells; format: cell-based, human; settings: untreated control OD 0.662

Sequence of BRAF^V600E (Mus musculus, UniProt P28028, V585E) (P28028 whole entry V585E): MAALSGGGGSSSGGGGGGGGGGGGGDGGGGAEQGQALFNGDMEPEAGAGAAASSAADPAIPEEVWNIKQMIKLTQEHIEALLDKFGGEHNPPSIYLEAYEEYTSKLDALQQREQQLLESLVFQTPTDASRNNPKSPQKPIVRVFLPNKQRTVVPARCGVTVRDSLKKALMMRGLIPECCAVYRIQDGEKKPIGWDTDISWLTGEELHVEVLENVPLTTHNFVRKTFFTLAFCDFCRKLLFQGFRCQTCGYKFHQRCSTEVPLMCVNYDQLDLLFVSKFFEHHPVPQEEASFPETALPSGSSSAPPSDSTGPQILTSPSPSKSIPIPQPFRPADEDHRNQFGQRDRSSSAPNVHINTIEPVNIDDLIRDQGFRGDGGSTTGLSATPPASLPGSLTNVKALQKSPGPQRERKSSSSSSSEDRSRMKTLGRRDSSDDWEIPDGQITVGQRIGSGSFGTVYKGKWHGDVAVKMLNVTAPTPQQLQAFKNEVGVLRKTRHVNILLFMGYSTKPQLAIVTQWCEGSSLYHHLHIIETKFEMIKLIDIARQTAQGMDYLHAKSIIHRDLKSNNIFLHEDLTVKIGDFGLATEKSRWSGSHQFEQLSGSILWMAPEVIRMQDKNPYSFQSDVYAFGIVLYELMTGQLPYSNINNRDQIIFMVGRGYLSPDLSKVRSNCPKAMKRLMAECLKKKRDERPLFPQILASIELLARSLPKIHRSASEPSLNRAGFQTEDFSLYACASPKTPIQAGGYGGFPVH

| Compound | IC50 [1] [nM] | IC50 (BRAF^V600E [2]) [nM] | IC50 (VEGFR-2 [3]) [nM] | IC50 (EGFR [4]) [nM] | Fold lower antiproliferative potency (GI50) than 9c [5] [fold] | GI50 [5] [nM] | IC50 (colon cancer (HT-29)) [nM] | IC50 [6] [nM] | IC50 [7] [nM] | viability at 96 h, 50 µM (Cell viability assay) [%] | Western blotting OD, BRAF^V600E (BRAF^V600E [8]) | Western blotting OD, EGFR (EGFR [9]) | Western blotting OD, VEGFR-2 (VEGFR-2 [10]) |
| --- | --- | --- | --- | --- | --- | --- | --- | --- | --- | --- | --- | --- | --- |
| C/N=C1/NN=C(c2ccc(Br)cc2)CS1 [Compound 9e, (Z)-N-(5-(4-Bromophenyl)-3,6-dihydro-2H-1,3,4-thiadiazin-2-ylidene) methanaminium bromide] | 62 ± 6 |  |  |  |  | 62 | 64 ± 6 | 58 ± 5 | 64 ± 6 | 92 |  |  |  |
| CC/N=C1/NN=C(c2ccc(Br)cc2)CS1 [Compound 9f, (Z)-N-(5-(4-Bromophenyl)-3,6-dihydro-2H-1,3,4-thiadiazin-2-ylidene)ethan aminium bromide] | 65 ± 6 |  |  |  |  | 66 | 66 ± 6 | 64 ± 6 | 66 ± 6 | 89 |  |  |  |
| C#Cc1cccc(Nc2ncnc3cc(OCCOC)c(OCCOC)cc23)c1 [Erlotinib, reference compound] | 30 ± 3 |  |  |  |  |  | 30 ± 3 | 40 ± 3 | 30 ± 3 |  |  |  |  |

More lines, in order of falling IC50 [1], values ahead:

| IC50 [1] [nM] | IC50 (BRAF^V600E [2]) [nM] | IC50 (VEGFR-2 [3]) [nM] | IC50 (EGFR [4]) [nM] | Fold lower antiproliferative potency (GI50) than 9c [5] [fold] | GI50 [5] [nM] | IC50 (colon cancer (HT-29)) [nM] | IC50 [6] [nM] | IC50 [7] [nM] | Compound | viability at 96 h, 50 µM (Cell viability assay) [%] | Western blotting OD, BRAF^V600E (BRAF^V600E [8]) | Western blotting OD, EGFR (EGFR [9]) | Western blotting OD, VEGFR-2 (VEGFR-2 [10]) |
| --- | --- | --- | --- | --- | --- | --- | --- | --- | --- | --- | --- | --- | --- |
| 56 ± 5 |  |  |  | 1.5 | 56 | 58 ± 5 | 52 ± 5 | 58 ± 5 | Br.C=CC/N=C1/NN=C(c2ccccc2)CS1 [Compound 9b, (Z)-N-(5-Phenyl-3,6-dihydro-2H-1,3,4-thiadiazin-2-ylidene)prop-2-en-1-aminium bromide] | 90 |  |  |  |
| 54 ± 5 |  |  |  |  | 54 | 56 ± 5 | 51 ± 5 | 56 ± 5 | Brc1ccc(C2=NN/C(=N/C3CCCCC3)SC2)cc1 [Compound 9g, (Z)-N-(5-(4-Bromophenyl)-3,6-dihydro-2H-1,3,4-thiadiazin-2-ylidene) cyclohexanaminium bromide] | 88 |  |  |  |
| 48 ± 4 | 88 ± 6 | 3.25 ± 0.03 | 96 ± 7 |  | 47 | 47 ± 4 | 44 ± 4 | 48 ± 4 | Brc1ccc(C2=NN=C(Nc3ccccc3)SC2)cc1 [Compound 9d, 5-(4-Bromophenyl)-2-(phenylamino)-6H-1,3,4-thiadiazin-3-ium bromide] | 89 |  |  |  |
| 43 ± 4 | 83 ± 6 | 2.8 ± 0.02 | 92 ± 7 | 1.2 | 43 | 44 ± 4 | 40 ± 4 | 44 ± 4 | Br.c1ccc(NC2=NN=C(c3ccccc3)CS2)cc1 [Compound 9a, 5-Phenyl-2-(phenylamino)-6H-1,3,4-thiadiazin-3-ium bromide] | 91 |  |  |  |
| 37 ± 3 | 74 ± 5 | 2.2 ± 0.02 | 86 ± 5 |  | 38 | 40 ± 4 | 35 ± 3 | 38 ± 3 | Br.c1ccc(C2=NN/C(=N/C3CCCCC3)SC2)cc1 [Compound 9c, (Z)-N-(5-Phenyl-3,6-dihydro-2H-1,3,4-thiadiazin-2-ylidene) cyclohexanaminium bromide] | 92 | 0.219 | 0.288 | 0.346 |
